Experiment [1] concerns the target human A2a receptor (Homo sapiens (Human), UniProt P29274). Briefly: A2a competition binding assay using Scintillation Proximity technology. An outline of the steps: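 Membranes (0.25 or 1 μg) from HEK293 expressing the receptor were pretreated with adenosine deaminase and bound to WGA-coated yttrium silicate SPA beads. They were incubated 1 h at room temperature with compound at 3000–0.15 nM and 0.5 nM tritiated pyrazolotriazolopyrimidine ligand in Ca/Mg-free DPBS with 10 mM MgCl2. Ki was derived from […] by Cheng-Prusoff.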

In experiment [2] the target is human A1 receptor (Homo sapiens (Human), UniProt P30542). In words: A1 competition binding assay using Scintillation Proximity technology; selectivity = A1 binding Ki / A2a binding Ki. As to conditions: A1 binding Ki divided by A2a binding Ki. The procedure, abridged:
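SPA competition using 5 ug membranes from CHO-K1 cells expressing human A1, pretreated with adenosine deaminase. Radioligand was 0.7 nM [3H]DPCPX (final), with compound at 3000–0.15 nM in DPBS + 10 mM MgCl2. Incubation was 1 h at room temperature. Non-specific binding was defined with 1 uM DPCPX, and Ki was derived as for A2a.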
On the technique in general: In a scintillation proximity assay essentially only radioactivity close to the scintillant gives light.

Setting [3] is: 0.25 μg of membranes from HEK293 cells expressing the human A2a receptor.
The mark [4] stands for this setting: * assay run with 1 μg of membranes versus 0.25 μg, HEK293 cells expressing the human A2a receptor.

The Ki is a measure of affinity in units of concentration, obtained from inhibition or displacement.

Sequence of human A1 receptor (P30542 whole entry): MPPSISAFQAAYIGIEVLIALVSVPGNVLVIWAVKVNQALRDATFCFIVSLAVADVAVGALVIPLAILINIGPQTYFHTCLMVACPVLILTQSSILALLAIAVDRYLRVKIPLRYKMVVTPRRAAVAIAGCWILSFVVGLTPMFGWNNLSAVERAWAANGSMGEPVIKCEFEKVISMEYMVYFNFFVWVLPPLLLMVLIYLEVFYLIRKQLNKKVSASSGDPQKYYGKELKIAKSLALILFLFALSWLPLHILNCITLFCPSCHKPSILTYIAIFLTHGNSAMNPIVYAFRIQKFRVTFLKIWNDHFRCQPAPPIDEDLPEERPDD
Sequence of human A2a receptor (P29274 whole entry): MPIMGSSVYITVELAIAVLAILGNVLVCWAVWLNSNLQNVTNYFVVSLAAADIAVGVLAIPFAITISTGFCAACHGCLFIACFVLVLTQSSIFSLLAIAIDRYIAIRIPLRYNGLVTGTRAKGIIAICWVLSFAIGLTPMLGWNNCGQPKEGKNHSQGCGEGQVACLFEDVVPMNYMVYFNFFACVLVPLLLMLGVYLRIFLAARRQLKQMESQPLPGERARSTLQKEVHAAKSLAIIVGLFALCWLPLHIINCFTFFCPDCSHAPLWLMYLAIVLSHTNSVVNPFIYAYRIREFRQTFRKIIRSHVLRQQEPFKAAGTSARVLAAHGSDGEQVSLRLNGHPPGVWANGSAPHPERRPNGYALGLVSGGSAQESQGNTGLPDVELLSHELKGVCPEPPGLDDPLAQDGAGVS

`COc1cccc2c(C(=O)NCc3cccc(CN4CCOCC4)c3)nc(N)nc12` [Example 53, 2-amino-8-methoxy-N-[[3-(morpholinomethyl)phenyl]methyl]quinazoline-4-carboxamide] had a Ki in experiment [1] (setting [3]) of 7.1 nM. Moreover, in experiment [2], the “A2a selectivity (A2a A1 binding selectivity)” value (“A2a selectivity” below) was found to be 63.

The compound `COc1cccc2c(C(=O)NCc3cccc(COc4cccc(F)c4)n3)nc(N)nc12` [Example 54, 2-amino-N-[[6-[(3-fluorophenxoy)methyl]-2-pyridyl]methyl]-8-methoxy-quinazoline-4-carboxamide] yielded a Ki in experiment [1] (setting [4]) of 2.1 nM. In experiment [2], the “A2a selectivity” value amounted to 49.

In turn, `COc1cccc2c(C(=O)NCc3cccc(CSc4ccc(F)cc4)n3)nc(N)nc12` [Example 55, 2-amino-N-[[6-[(4-fluorophenyl)sulfanyl-methyl]-2-pyridyl]methyl]-8-methoxy-quinazoline-4-carboxamide] yielded an inhibition constant (Ki) in experiment [1] (setting [4]) of 3.2 nM. Further, the “A2a selectivity” value in experiment [2] amounted to 36.

In turn, `COc1cccc2c(C(=O)NCc3cccc(CSc4nc5ccccc5[nH]4)n3)nc(N)nc12` [Example 56, 2-amino-N-[[6-(1H-benzimidazol-2-ylsulfanylmethyl)-2-pyridyl]methyl]-8-methoxy-quinazoline-4-carboxamide] showed a Ki in experiment [1] (setting [3]) of 6.3 nM. Further, the “A2a selectivity” value in experiment [2] turned out to be 111.

With `Nc1nc(C(=O)NCc2cccc(CO)n2)c2cccc(F)c2n1` [Example 57, 2-amino-8-fluoro-N-[[6-(hydroxymethyl)-2-pyridyl]methyl]quinazoline-4-carboxamide], the Ki in experiment [1] (setting [3]) stood at 9.6 nM. Besides, the “A2a selectivity” value in experiment [2] was determined as 67.

Regarding `[2H]C([2H])(NC(=O)c1nc(N)nc2c(OC)cccc12)c1cccc(Oc2cncc(OC)c2)n1` [Example 58, 2-amino-N-[dideuterio-[6-[(5-methoxy-3-pyridyl)oxy]-2-pyridyl]methyl]-8-methoxy-quinazoline-4-carboxamide], in experiment [1] (setting [4]), affinity was put at a Ki of 5 nM. Moreover, in experiment [2], the “A2a selectivity” value was 16.

For the compound `[2H]C([2H])(NC(=O)c1nc(N)nc2c(F)cccc12)c1cccc(Oc2ccc(OCCOC)cc2)n1` [Example 59, 2-amino-N-[dideuterio-[6-[4-(2-methoxyethoxy)phenoxy]-2-pyridyl]methyl]-8-fluoro-quinazoline-4-carboxamide], in experiment [1] (setting [4]), the affinity corresponds to a Ki of 3.7 nM. Besides, in experiment [2], the “A2a selectivity” value came out at 32.

For the compound `[2H]C([2H])(NC(=O)c1nc(N)nc2c(OC)cccc12)c1cccc(N2CCN(c3ccc(OCCOC)cc3)CC2)n1` [Example 60, 2-amino-N-[dideuterio-[6-[4-[4-(2-methoxyethoxy)phenyl]piperazin-1-yl]-2-pyridyl]methyl]-8-methoxy-quinazoline-4-carboxamide], the inhibition constant (Ki) in experiment [1] (setting [4]) came out at 4.3 nM. Moreover, in experiment [2], the “A2a selectivity” value stood at 67.

Turning to `COc1cccc2c(C(=O)NCc3cccn(C)c3=O)nc(N)nc12` [Example 61, 2-amino-8-methoxy-N-[(1-methyl-2-oxo-3-pyridyl)methyl]quinazoline-4-carboxamide], the Ki in experiment [1] (setting [3]) was determined as 0.9 nM. Moreover, the “A2a selectivity” value in experiment [2] is reported as 100.

Compound `Nc1nc(C(=O)NCc2ccccc2-n2cccn2)c2cccc(F)c2n1` [Example 62, 2-amino-8-fluoro-N-[(2-pyrazol-1-ylphenyl)methyl]quinazoline-4-carboxamide] came in with an inhibitory constant (Ki) in experiment [1] (setting [3]) of 0.5 nM. Further, the “A2a selectivity” value in experiment [2] amounted to 297.

Compound `Nc1nc(C(=O)NCc2cccc(-c3ccccn3)n2)c2cccc(F)c2n1` [Example 63, 2-amino-8-fluoro-N-[[6-(2-pyridyl)-2-pyridyl]methyl]quinazoline-4-carboxamide] had an inhibitory constant (Ki) in experiment [1] (setting [3]) of 0.8 nM. For the same compound, the “A2a selectivity” value in experiment [2] was 59.

The compound `Nc1nc(C(=O)NCc2ccccc2-c2ncccn2)c2cccc(F)c2n1` [Example 64, 2-amino-8-fluoro-N-[(2-pyrimidin-2-ylphenyl)methyl]quinazoline-4-carboxamide] yielded a Ki in experiment [1] (setting [3]) of 0.9 nM. Further, the “A2a selectivity” value in experiment [2] worked out at 235.

Regarding `CC(C)c1cccc(-c2cccc(CNC(=O)c3nc(N)nc4c(F)cccc34)n2)c1` [Example 65, 2-amino-8-fluoro-N-[[6-(3-isopropylphenyl)-2-pyridyl]methyl]quinazoline-4-carboxamide], the affinity in experiment [1] (setting [3]), expressed as Ki, was 1 nM. In addition, the “A2a selectivity” value in experiment [2] is 50.

`CC(C)Oc1cccc(-c2cccc(CNC(=O)c3nc(N)nc4c(F)cccc34)n2)c1` [Example 66, 2-amino-8-fluoro-N-[[6-(3-isopropoxyphenyl)-2-pyridyl]methyl]quinazoline-4-carboxamide] came in with an inhibition constant Ki in experiment [1] (setting [4]) of 3.8 nM. Further, in experiment [2], the “A2a selectivity” value was 3.

Compound `Nc1nc(C(=O)NCc2ncccc2-c2ncccn2)c2cccc(F)c2n1` [Example 67, 2-amino-8-fluoro-N-[(3-pyrimidin-2-yl-2-pyridyl)methyl]quinazoline-4-carboxamide] came in with a Ki in experiment [1] (setting [3]) of 4 nM. Also, the “A2a selectivity” value in experiment [2] was found to be 297.

Turning to `Cc1ccc(-c2cccnc2CNC(=O)c2nc(N)nc3c(F)cccc23)nc1` [Example 68, 2-amino-8-fluoro-N-[[3-(5-methyl-2-pyridyl)-2-pyridyl]methyl]quinazoline-4-carboxamide], the affinity in experiment [1] (setting [4]) corresponds to a Ki of 9.1 nM. The “A2a selectivity” value in experiment [2] turned out to be 44.

As to `Cc1csc(-c2cccc(CNC(=O)c3nc(N)nc4c(F)cccc34)n2)n1` [Example 69, 2-amino-8-fluoro-N-[[6-(4-methylthiazol-2-yl)-2-pyridyl]methyl]quinazoline-4-carboxamide], in experiment [1] (setting [3]), the Ki amounted to 4.2 nM. The “A2a selectivity” value in experiment [2] came to 63.

Regarding `Nc1nc(C(=O)NCc2cccc(-c3cnco3)n2)c2cccc(F)c2n1` [Example 70, 2-amino-8-fluoro-N-[(6-oxazol-5-yl-2-pyridyl)methyl]quinazoline-4-carboxamide], the affinity in experiment [1] (setting [3]) corresponds to a Ki of 4.5 nM. In experiment [2], the “A2a selectivity” value is given as 19.

The compound `Nc1nc(C(=O)NCc2cccc(C(F)F)n2)c2cccc(F)c2n1` [Example 71, 2-amino-N-[[6-(difluoromethyl)-2-pyridyl]methyl]-8-fluoro-quinazoline-4-carboxamide] had a Ki in experiment [1] (setting [3]) of 3.6 nM. The “A2a selectivity” value in experiment [2] was determined as 60.

Take `Cc1ccc(CNC(=O)c2nc(N)nc3c(F)cccc23)nc1` [Example 72, 2-amino-8-fluoro-N-[(5-methyl-2-pyridyl)methyl]quinazoline-4-carboxamide]: the Ki in experiment [1] (setting [3]) turned out to be 6.1 nM. Further, the “A2a selectivity” value in experiment [2] is recorded as 30.

For `Cc1ccc(CCNC(=O)c2nc(N)nc3c(F)cccc23)nc1` [Example 73, 2-amino-8-fluoro-N-[2-(5-methyl-2-pyridyl)ethyl)quinazoline-4-carboxamide], the Ki in experiment [1] (setting [3]) was 225 nM. In addition, the “A2a selectivity” value in experiment [2] is reported as 33.

On to `COC(=O)c1ccccc1CNC(=O)c1nc(N)nc2c(F)cccc12` [Example 74, methyl 2-[[(2-amino-8-fluoro-quinazoline-4-carbonyl)amino]methyl]benzoate], for which the Ki in experiment [1] (setting [4]) worked out at 2.5 nM. Also, the “A2a selectivity” value in experiment [2] is reported as 18.

As to `COC(=O)c1cccc(CNC(=O)c2nc(N)nc3c(F)cccc23)n1` [Example 75, methyl 6-[[(2-amino-8-fluoro-quinazoline-4-carbonyl)amino]methyl]pyridine-2-carboxylate], the affinity in experiment [1] (setting [4]) corresponds to a Ki of 23 nM. The “A2a selectivity” value in experiment [2] was found to be 14.

`Cc1ccc(F)c(CNC(=O)c2nc(N)nc3c(F)cccc23)n1` [Example 76, 2-amino-8-fluoro-N-[(3-fluoro-6-methyl-2-pyridyl)methyl]quinazoline-4-carboxamide] gave a Ki in experiment [1] (setting [3]) of 0.5 nM. Moreover, the “A2a selectivity” value in experiment [2] is given as 115.

In experiment [1] (setting [3]), `COc1ccc(C)c(CNC(=O)c2nc(N)nc3c(F)cccc23)n1` [Example 77, 2-amino-8-fluoro-N-[(6-methoxy-3-methyl-2-pyridyl)methyl]quinazoline-4-carboxamide] gave a Ki of 0.8 nM. Also, in experiment [2], the “A2a selectivity” value turned out to be 62.

The compound `CC(C)Oc1cccc(CNC(=O)c2nc(N)nc3c(F)cccc23)n1` [Example 78, 2-amino-8-fluoro-N-[(6-isoppropoxy-2-pyridyl)methyl]quinazoline-4-carboxamide] yielded a Ki in experiment [1] (setting [3]) of 1 nM. Also, in experiment [2], the “A2a selectivity” value was 75.

In turn, `CC1(O)CCN(c2cccc(CNC(=O)c3nc(N)nc4c(F)cccc34)n2)CC1` [Example 79, 2-amino-8-fluoro-N-[[6-(4-hydroxy-4-methyl-1-piperidyl)-2-pyridyl]methyl]quinazoline-4-carboxamide] displayed a Ki in experiment [1] (setting [3]) of 5.2 nM. Also, the “A2a selectivity” value in experiment [2] is reported as 14.

`Nc1nc(C(=O)NCc2cccc3cncn23)c2cccc(F)c2n1` [Example 80, 2-amino-8-fluoro-N-(imidazo[1,5-a]pyridin-5-ylmethyl)quinazoline-4-carboxamide] displayed an inhibition constant (Ki) in experiment [1] (setting [4]) of 6.2 nM. The “A2a selectivity” value in experiment [2] stood at 21.

In turn, `Cc1cccn2cc(CNC(=O)c3nc(N)nc4c(F)cccc34)nc12` [Example 81, 2-amino-8-fluoro-N-[(8-methylimidazo[1,2-a]pyridin-2-yl)methyl]quinazoline-4-carboxamide] showed an inhibition constant (Ki) in experiment [1] (setting [3]) of 6.9 nM. Besides, the “A2a selectivity” value in experiment [2] came out at 12.

For `CC(C)c1nc(CNC(=O)c2nc(N)nc3c(F)cccc23)cs1` [Example 82, 2-amino-8-fluoro-N-[(2-isopropylthiazol-4-yl)methyl]quinazoline-4-carboxamide], the Ki in experiment [1] (setting [3]) worked out at 0.6 nM. For the same compound, the “A2a selectivity” value in experiment [2] was 56.

For the origin of these results see patent US10138212B2, “Aminoquinazoline compounds as A2A antagonist” (Merck Sharp & Dohme Corp., priority 2015, dated 2018).
